Earlier results on 24 compounds are cited in patent US11599023B2, “Photosensitive resin composition, organic EL element barrier rib, and organic EL element” (SHOWA DENKO K.K., priority 2018, dated 2023).

Like-named read-outs stand apart in the source and are kept apart here.

Test in data set [1]: not given
This is another data set of the same source.

The mark [2] stands for this setting: Table 1, at 25° C., cited in Scifinder.
The mark [3] stands for this setting: Table 2, of the low molecular weight organic compound (B), cited in Scifinder.
Setting [4] is: Table 1, at 20° C. and 1 atm, cited in Scifinder.
Setting [5] is: at 20° C. and 1 atm, SciFinder database.

As a reminder, the pKa is the pH at which an ionisable group is half protonated. With `Oc1ccc(O)c(O)c1` [1,2,4-Benzenetriol], the pKa under setting [2] is recorded as 9.58; the pKa under setting [3] is on record as 9.58; the pKa (at 25° C., SciFinder database) is listed as 9.58. For the same compound, the Molar volume in data set [1] (setting [4]), in data set [1] (setting [3]) and in data set [1] (setting [5]) was 84.7 cm^3/mol in each case.

For the compound `O=C(c1ccc(O)cc1)c1ccc(O)c(O)c1O` [2,3,4,4′-Tetrahydroxybenzophenone, 2,3,4,4′-Tetrahydroxybenzophenone, reference compound], the pKa is given as 7.38 under setting [2] and 7.38 under setting [3]. In addition, the Molar volume in data set [1] (setting [4]) and in data set [1] (setting [3]) was 161.2 cm^3/mol throughout.

Consider `O=C(O)c1ccc(O)c(O)c1O` [2,3,4-Trihydroxybenzoic acid], for which the pKa under setting [2] is listed as 3.30; the pKa under setting [3] is given as 3.30; the pKa (at 25° C., SciFinder database) is 3.3. Further, the Molar volume in data set [1] (setting [4]), in data set [1] (setting [3]) and in data set [1] (setting [5]) was 97.2 cm^3/mol in each case.

With `O=C(O)c1cccc(O)c1O` [2,3-Dihydroxybenzoic acid], the pKa by setting is: under setting [2], 2.96; under setting [3], 2.96; (at 25° C., SciFinder database) 2.96. The Molar volume in data set [1] (setting [4]), in data set [1] (setting [3]) and in data set [1] (setting [5]) was 98.8 cm^3/mol each time.

On to `O=C(O)c1ccc(O)cc1O` [2,4-Dihydroxybenzoic acid], for which the pKa is listed as 3.32 under setting [2]; 3.32 under setting [3]; 3.32 (at 25° C., SciFinder database). The Molar volume in data set [1] (setting [4]), in data set [1] (setting [3]) and in data set [1] (setting [5]) was 98.8 cm^3/mol throughout.

As for `O=C(O)c1cc(O)ccc1O` [2,5-Dihydroxybenzoic acid], the Molar volume in data set [1] (setting [4]), in data set [1] (setting [3]) and in data set [1] (setting [5]) was 98.8 cm^3/mol in each case.

Take `O=C(O)c1cc(O)cc(O)c1` [3,5-Dihydroxybenzoic acid]: the pKa by setting is: under setting [2], 3.96; under setting [3], 3.96; (at 25° C., SciFinder database) 3.96. In addition, the Molar volume in data set [1] (setting [4]), in data set [1] (setting [3]) and in data set [1] (setting [5]) was 98.8 cm^3/mol throughout.

Consider `O=C(O)c1cc(O)c(O)c(O)c1` [Gallic acid], for which the Molar volume in data set [1] (setting [4]), in data set [1] (setting [3]) and in data set [1] (setting [5]) was 97.2 cm^3/mol in each case.

As to `O=C(O)c1cccc(C(=O)O)c1C(=O)O` [Hemimellitic acid], the Molar volume in data set [1] (setting [4]) was 127.0 cm^3/mol; in data set [1] (setting [3]), 127.0 cm^3/mol; in data set [1] (setting [5]) it was 127 cm^3/mol.

Regarding `Oc1ccc(O)c2c(O)c3ccccc3c(O)c12` [Leucoquinizarin, reference compound], the pKa runs as follows: under setting [2], 8.11; under setting [3], 8.11. Also, the Molar volume in data set [1] (setting [4]) and in data set [1] (setting [3]) was 151.3 cm^3/mol each time.

In the case of `O=C1OC(c2ccc(O)cc2)(c2ccc(O)cc2)c2ccccc21` [Phenolphthalein, reference compound], the pKa is 9.23 under setting [2] and 9.23 under setting [3]. Further, the Molar volume in data set [1] (setting [4]) and in data set [1] (setting [3]) was 229.7 cm^3/mol each time.

`O=C(O)c1ccccc1C(c1ccc(O)cc1)c1ccc(O)cc1` [Phenolphthalin, reference compound]: the pKa is 3.96 under setting [2] and 3.96 under setting [3]. The Molar volume in data set [1] (setting [4]) and in data set [1] (setting [3]) was 242.0 cm^3/mol in each case.

On to `Oc1cc(O)cc(O)c1` [Phloroglucinol], for which the pKa by setting is: under setting [2], 9.06; under setting [3], 9.06; (at 25° C., SciFinder database) 9.06. The Molar volume in data set [1] (setting [4]), in data set [1] (setting [3]) and in data set [1] (setting [5]) was 84.7 cm^3/mol throughout.

In the case of `CCCOC(=O)c1cc(O)c(O)c(O)c1` [Propyl gallate, reference compound], the Molar volume in data set [1] (setting [4]) and in data set [1] (setting [3]) was 155.6 cm^3/mol throughout.

For the compound `Oc1cccc(O)c1O` [Pyrogallol], the Molar volume in data set [1] (setting [4]), in data set [1] (setting [3]) and in data set [1] (setting [5]) was 84.7 cm^3/mol each time.

For the compound `O=C(O)c1cc(C(=O)O)c(C(=O)O)cc1C(=O)O` [Pyromellitic acid, reference compound], the Molar volume in data set [1] (setting [4]) and in data set [1] (setting [3]) was 139.5 cm^3/mol in each case.

With `Oc1ccccc1O` [catechol], in data set [1] (setting [5]), the Molar volume was 86.2 cm^3/mol.

As for `Oc1ccc(O)cc1` [hydroquinone], the pKa (at 25° C., SciFinder database) is recorded as 9.58. Also, the Molar volume in data set [1] (setting [5]) was 86.2 cm^3/mol.

Regarding `O=C(O)c1cccc(C(=O)O)c1` [isophthalic acid], the Molar volume in data set [1] (setting [5]) is reported as 114.4 cm^3/mol.

For `O=C(O)c1ccccc1C(=O)O` [phthalic acid], the Molar volume in data set [1] (setting [5]) is recorded as 114.4 cm^3/mol.

With `Oc1cccc(O)c1` [resorcinol], under “at 25° C., SciFinder database”, the pKa was 9.45. In data set [1] (setting [5]), the Molar volume is given as 86.2 cm^3/mol.

As to `O=C(O)c1ccc(C(=O)O)cc1` [terephthalic acid], in data set [1] (setting [5]), the Molar volume was 114.4 cm^3/mol.

Take `O=C(O)c1ccc(C(=O)O)c(C(=O)O)c1` [trimellitic acid]: the Molar volume in data set [1] (setting [5]) is reported as 127.0 cm^3/mol.

As to `O=C(O)c1cc(C(=O)O)cc(C(=O)O)c1` [trimesic acid], the Molar volume in data set [1] (setting [5]) is listed as 127.0 cm^3/mol.
